Experimental findings from PMC7795340, “First Synthesis of Racemic Trans Propargylamino-Donepezil, a Pleiotrope Agent Able to Both Inhibit AChE and MAO-B, with Potential Interest against Alzheimer’s Disease” (Molecules, 2020) are described below.

For test [1], the target named is (h)AChE (AChE from human erythrocytes) (Homo sapiens, UniProt P22303). The test can be described thus: biochemical. To be noted: for inhibition at 1 µM: read-out: (h)AChE % Inhibition at 10^−6 M. As for the experimental part: DPZ was used as a reference.
Inhibitory capacity of compounds on AChE biological activity was evaluated using the spectrometric method of Ellman. Acetyl- or butyrylthiocholine iodide and 5,5-dithiobis-(2-nitrobenzoic) acid (DTNB) were purchased from Sigma Aldrich. Lyophilized BuChE from equine serum (Sigma Aldrich) was dissolved in 0.2 M phosphate buffer pH 7.4 such as to have enzyme solutions stock with 2.5 units/mL enzyme activity. AChE from human erythrocytes (buffered aqueous solution, ≥500 units/mg protein (BCA), Sigma Aldrich) was diluted in 20 mM HEPES buffer pH 8, 0.1% Triton X-100 such as to have enzyme solution with 0.25 unit/mL enzyme activity. In the procedure, 100 μL of 0.3 mM DTNB dissolved in phosphate buffer pH 7.4 was added to the 96 wells plate followed by 50 μL of test compound solution and 50 μL of enzyme (0.05 U final). After 5 min of preincubation at 25 °C, the reaction was then initiated by the injection of 50 μL of 10 mM acetyl- or butyrylthiocholine iodide solution. […] Assays were performed in simplicate during three independent tests, with a blank containing all components except acetyl- or butyrylthiocholine, in order to account for non-enzymatic reaction. The reaction slopes were compared, and the percent inhibition due to the presence of test compounds was calculated by the following expression: 100 − (vi/v0 × 100) where vi is the rate calculated in the presence of inhibitor and v0 is the enzyme activity.

Test [2] deals with (eq)BuChE (BuChE from equine serum) (Equus caballus, UniProt P81908). Put plainly: (eq)BuChE inhibition, Ellman test. It counts as biochemical. The note with it: for inhibition at 1 µM: read-out: (eq)BuChE % Inhibition at 10^−6 M. As for the experimental part: . DPZ was used as a reference.
Inhibitory capacity of compounds on AChE biological activity was evaluated using the spectrometric method of Ellman. Acetyl- or butyrylthiocholine iodide and 5,5-dithiobis-(2-nitrobenzoic) acid (DTNB) were purchased from Sigma Aldrich. Lyophilized BuChE from equine serum (Sigma Aldrich) was dissolved in 0.2 M phosphate buffer pH 7.4 such as to have enzyme solutions stock with 2.5 units/mL enzyme activity. AChE from human erythrocytes (buffered aqueous solution, ≥500 units/mg protein (BCA), Sigma Aldrich) was diluted in 20 mM HEPES buffer pH 8, 0.1% Triton X-100 such as to have enzyme solution with 0.25 unit/mL enzyme activity. In the procedure, 100 μL of 0.3 mM DTNB dissolved in phosphate buffer pH 7.4 was added to the 96 wells plate followed by 50 μL of test compound solution and 50 μL of enzyme (0.05 U final). After 5 min of preincubation at 25 °C, the reaction was then initiated by the injection of 50 μL of 10 mM acetyl- or butyrylthiocholine iodide solution. The hydrolysis of acetyl- or butyrylthiocholine was monitored by the formation of yellow 5-thio-2-nitrobenzoate anion as the result of the reaction of DTNB with thiocholine, released by the enzymatic hydrolysis of acetyl- or butyrylthiocholine, at a wavelength of 412 nm using a 96-well microplate plate reader (TECAN Infinite M200, Lyon, France). […]. The rate of absorbance increase at 412 nm was followed every minute for 10 min. Assays were performed in simplicate during three independent tests, with a blank containing all components except acetyl- or butyrylthiocholine, in order to account for non-enzymatic reaction. The reaction slopes were compared, and the percent inhibition due to the presence of test compounds was calculated by the following expression: 100 − (vi/v0 × 100) where vi is the rate calculated in the presence of inhibitor and v0 is the enzyme activity.
First screening of AChE and BuChE activity was carried out at a 10^−6 or 10^−5 M concentration of compounds under study. […]
(In Ellman's method for cholinesterases, released thiocholine reacts with DTNB.)

In the next test the target is T1, human recombinant MAO-A (Homo sapiens, UniProt P21397).
T1 construct: purchased Sigma Aldrich; host or cells: baculovirus infected insect cells (microsomes)
T1 sequence (P21397 1-527): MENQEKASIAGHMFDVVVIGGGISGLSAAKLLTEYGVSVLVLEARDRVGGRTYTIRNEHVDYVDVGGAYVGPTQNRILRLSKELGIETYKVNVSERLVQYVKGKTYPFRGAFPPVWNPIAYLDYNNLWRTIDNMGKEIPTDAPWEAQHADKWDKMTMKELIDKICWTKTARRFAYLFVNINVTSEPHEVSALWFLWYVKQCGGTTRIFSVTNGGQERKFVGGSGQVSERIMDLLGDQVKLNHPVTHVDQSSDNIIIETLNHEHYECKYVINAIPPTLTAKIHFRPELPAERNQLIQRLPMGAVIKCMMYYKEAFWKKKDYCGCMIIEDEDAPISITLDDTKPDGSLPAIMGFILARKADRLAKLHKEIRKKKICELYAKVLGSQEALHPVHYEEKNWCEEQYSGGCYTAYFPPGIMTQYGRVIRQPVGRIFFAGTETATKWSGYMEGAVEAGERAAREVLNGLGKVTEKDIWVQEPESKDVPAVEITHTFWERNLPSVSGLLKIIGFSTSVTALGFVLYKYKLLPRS
Put plainly: (h)MAO-A inhibition, kynuramine fluorescence assay. It counts as biochemical. To be noted: 10^−5 M; kynuramine 50 µM. As for the experimental part: (§1) Inhibition of human recombinant monoamine oxidases A (250 U/mg) and B (59 U/mg; microsomes from baculovirus infected insect cells; Sigma Aldrich) was determined as already described, measuring the fluorescence of 4-hydroxyquinoline (exc. 310 nm; em. 400 nm) produced by MAOs in the oxidative deamination of substrate kynuramine. […] Assays were performed in triplicate during three independent tests, in 96-well black polystyrene plates (Greiner Bio-One, Kremsmünster, Austria) using an Infinite M1000 Pro plate reader (Tecan, Cernusco s.N., Italy).

The target of another test is T2, human recombinant MAO-B (Homo sapiens, UniProt P27338).
T2 construct: purchased Sigma Aldrich; host or cells: baculovirus infected insect cells (microsomes)
T2 sequence (P27338 1-520): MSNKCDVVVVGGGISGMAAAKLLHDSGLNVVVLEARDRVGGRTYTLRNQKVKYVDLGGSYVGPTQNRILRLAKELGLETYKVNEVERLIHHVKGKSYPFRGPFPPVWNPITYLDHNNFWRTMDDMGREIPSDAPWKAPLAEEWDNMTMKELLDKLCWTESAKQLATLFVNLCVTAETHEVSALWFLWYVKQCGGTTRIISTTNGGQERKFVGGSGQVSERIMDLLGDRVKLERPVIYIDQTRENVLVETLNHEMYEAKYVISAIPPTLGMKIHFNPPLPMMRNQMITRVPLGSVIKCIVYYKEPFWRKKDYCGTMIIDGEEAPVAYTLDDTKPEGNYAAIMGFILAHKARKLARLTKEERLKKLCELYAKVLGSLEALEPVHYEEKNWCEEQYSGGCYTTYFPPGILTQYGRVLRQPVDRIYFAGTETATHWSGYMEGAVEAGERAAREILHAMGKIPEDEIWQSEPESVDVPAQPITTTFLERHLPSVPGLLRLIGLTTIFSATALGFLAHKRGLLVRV
Put plainly: (h)MAO-B inhibition, kynuramine fluorescence assay. It counts as biochemical. To be noted: kynuramine 50 µM; for inhibition at 10 µM: 10^−5 M; for IC50: (h)MAO-B IC50 (µM) (n = 3), mean ± SEM, n = 3. The protocol:
as §1

Several values for one entry are separate records, joined by “and”; a condition that tells them apart may be missing. Equal values may be shown once. Read-outs that look alike come from different tables or passages of the source. A value given as a limit tells only on which side of the number the result lay.

(h)AChE (AChE from human erythrocytes), sequence (P22303 other isoform, or with tags, fused parts or gaps): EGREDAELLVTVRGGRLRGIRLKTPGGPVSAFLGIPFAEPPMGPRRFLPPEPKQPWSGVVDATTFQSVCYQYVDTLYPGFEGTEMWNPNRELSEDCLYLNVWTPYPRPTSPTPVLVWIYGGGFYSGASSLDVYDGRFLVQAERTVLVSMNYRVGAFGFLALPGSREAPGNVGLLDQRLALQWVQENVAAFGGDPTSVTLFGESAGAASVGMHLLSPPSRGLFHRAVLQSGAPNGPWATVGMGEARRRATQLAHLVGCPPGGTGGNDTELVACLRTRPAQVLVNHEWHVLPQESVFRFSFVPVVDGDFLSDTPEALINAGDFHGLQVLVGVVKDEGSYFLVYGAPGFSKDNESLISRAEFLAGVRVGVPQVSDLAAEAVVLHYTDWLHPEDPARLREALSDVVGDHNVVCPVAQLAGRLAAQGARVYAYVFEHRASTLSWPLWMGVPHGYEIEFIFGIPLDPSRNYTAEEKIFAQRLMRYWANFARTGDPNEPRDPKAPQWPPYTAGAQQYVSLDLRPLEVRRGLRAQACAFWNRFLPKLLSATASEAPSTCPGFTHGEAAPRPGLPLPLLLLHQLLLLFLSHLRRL
(eq)BuChE (BuChE from equine serum), sequence (P81908 whole entry): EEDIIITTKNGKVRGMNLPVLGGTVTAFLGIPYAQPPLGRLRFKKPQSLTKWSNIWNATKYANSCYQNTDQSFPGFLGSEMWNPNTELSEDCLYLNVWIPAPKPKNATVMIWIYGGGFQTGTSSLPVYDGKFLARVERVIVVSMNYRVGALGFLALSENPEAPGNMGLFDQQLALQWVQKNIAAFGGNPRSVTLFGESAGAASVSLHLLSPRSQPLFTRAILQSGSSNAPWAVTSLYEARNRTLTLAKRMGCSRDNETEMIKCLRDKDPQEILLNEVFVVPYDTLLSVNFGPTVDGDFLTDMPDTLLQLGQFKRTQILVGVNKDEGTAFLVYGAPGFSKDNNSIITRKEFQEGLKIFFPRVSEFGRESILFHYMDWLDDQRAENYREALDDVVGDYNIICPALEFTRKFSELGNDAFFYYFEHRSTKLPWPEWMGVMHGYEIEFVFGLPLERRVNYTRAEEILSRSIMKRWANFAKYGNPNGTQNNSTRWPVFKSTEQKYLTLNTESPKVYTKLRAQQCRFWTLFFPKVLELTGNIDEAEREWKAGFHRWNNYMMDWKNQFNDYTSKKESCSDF

Consider `COc1cc2c(cc1OC)C(NC(C)=O)C(CC1CCN(Cc3ccccc3)CC1)C2=O` (centres unmarked) [Compound 16], for which the inhibition (usually the relative decrease from the control value, in per cent) at 1 µM is 4% in test [1] and 39% in test [2].

As to `C#CCN[C@@H]1c2cc(OC)c(OC)cc2C(=O)[C@H]1CC1CCN(Cc2ccccc2)CC1` (relative stereo) [Trans-PADPZ (19), Trans 2-[(1-Benzyl-4-piperidyl)methyl]-5,6-dimethoxy-3-(prop-2-ynylamino)indan-1-one], the IC50 (usually the point on the concentration scale where inhibition reaches its midpoint) was 0.4 µM and 0.442 µM in test [1] ((h)AChE IC50 (µM) (n = 3), mean ± SEM, n = 3); 0.44 µM in test [1] (value in nM, read-out: (h)AChE IC50); 4.23 ± 0.375 µM in test [2] ((eq)BuChE IC50 (µM) (n = 3), mean ± SEM, n = 3); 6.4 µM and 6.43 µM at human recombinant MAO-B. Further, in test [1] (BuChE IC50 vs (h)AChE IC50), the “relative selectivity: BuChE inhibited at a concentration fold greater than AChE” value stood at 10 fold. Moreover, the inhibition at 1 µM in test [1] is 71%; in test [2], 74%. For the same compound, the inhibition at 10 µM on human recombinant MAO-A amounted to 13%; on human recombinant MAO-B, 52%.

`C#CCNC1CC(=O)c2cc(OC)c(OC)cc21` (centres unmarked) [Compound 5, 5,6-Dimethoxy-3-(prop-2-ynylamino)indan-1-one]: the results for the inhibition at 10 µM on human recombinant MAO-A and on human recombinant MAO-B were < 10% and 45%, respectively. Further, the IC50 on human recombinant MAO-B was determined as 13.4 ± 3.4 µM.
